Assay: xn = mol fraction of the nth substance listed

O=C1CCCCC1 + Cc1ccccc1
viscosity [mPa·s]
Conditions	298.15 K	303.15 K	308.15 K
101 kPa, x1 = 0.1059	0.615	–	–
101 kPa, x1 = 0.2177	0.682	–	–
101 kPa, x1 = 0.3103	0.74	–	–
101 kPa, x1 = 0.4166	0.829	–	–
101 kPa, x1 = 0.5047	0.884	–	–
101 kPa, x1 = 0.6049	0.971	–	–
101 kPa, x1 = 0.7171	1.218	–	–
101 kPa, x1 = 0.7943	1.333	–	–
101 kPa, x1 = 0.9041	1.574	–	–
101 kPa, x2 = 0.1021	–	1.396	–
101 kPa, x2 = 0.202	–	1.218	–
101 kPa, x2 = 0.3024	–	1.068	–
101 kPa, x2 = 0.4051	–	0.9428	–
101 kPa, x2 = 0.4964	–	0.8546	–
101 kPa, x2 = 0.6017	–	0.753	–
101 kPa, x2 = 0.6963	–	0.6911	–
101 kPa, x2 = 0.8022	–	0.6292	–
101.33 kPa, x1 = 0.1032	0.61	0.573	0.543
101.33 kPa, x1 = 0.1997	0.668	0.625	0.59
101.33 kPa, x1 = 0.3024	0.738	0.689	0.648
101.33 kPa, x1 = 0.4055	0.824	0.767	0.721
101.33 kPa, x1 = 0.504	0.922	0.854	0.799
101.33 kPa, x1 = 0.602	1.043	0.972	0.903
101.33 kPa, x1 = 0.7012	1.194	1.103	1.02
101.33 kPa, x1 = 0.7999	1.391	1.273	1.183
101.33 kPa, x1 = 0.9027	1.654	1.505	1.382

CCC12CC3CC(CC(C3)C1)C2 + CCCCCCCCC
viscosity [mPa·s], 100 kPa
Conditions	x1 = 0.0998	x1 = 0.2013	x1 = 0.3004	x1 = 0.4014	x1 = 0.5002	x1 = 0.5999	x1 = 0.7002	x1 = 0.7995	x1 = 0.9008
293.15 K	1.043	1.335	1.642	1.902	2.234	2.701	3.287	4.086	5.133
298.15 K	0.972	1.243	1.492	1.728	2.019	2.384	2.881	3.537	4.44
303.15 K	0.921	1.141	1.369	1.577	1.836	2.144	2.581	3.158	3.898
308.15 K	0.836	1.053	1.261	1.448	1.684	1.957	2.34	2.833	3.47
313.15 K	0.786	0.985	1.166	1.334	1.547	1.792	2.128	2.556	3.114
318.15 K	0.729	0.901	1.073	1.232	1.416	1.644	1.94	2.32	2.815
323.15 K	0.696	0.85	1.006	1.144	1.317	1.515	1.782	2.115	2.547

O=C1CCCCC1 + CCCCCCCO
298.15 K, 101 kPa
Conditions	viscosity [mPa·s]
x2 = 0.1013	1.965
x2 = 0.1998	2.034
x2 = 0.3029	2.16
x2 = 0.4029	2.351
x2 = 0.4994	2.584
x2 = 0.5977	2.914
x2 = 0.6971	3.335
x2 = 0.8008	3.921
x2 = 0.8949	4.663

CCCCCCO + CN1CCCC1=O
viscosity [mPa·s], 100 kPa
Conditions	x1 = 0.1042	x1 = 0.2	x1 = 0.302	x1 = 0.3995	x1 = 0.4998	x1 = 0.5996	x1 = 0.6992	x1 = 0.7985	x1 = 0.8981	x1 = 0.9469
293.15 K	1.95	2.073	2.222	2.385	2.581	2.824	3.148	3.595	4.278	4.729
298.15 K	1.786	1.894	2.02	2.157	2.321	2.521	2.791	3.158	3.711	4.048
303.15 K	1.645	1.739	1.845	1.961	2.099	2.266	2.49	2.791	3.24	3.53
308.15 K	1.522	1.603	1.693	1.791	1.907	2.046	2.233	2.481	2.844	3.083
313.15 K	1.412	1.483	1.56	1.643	1.741	1.857	2.012	2.217	2.51	2.708
318.15 K	1.315	1.377	1.442	1.513	1.595	1.692	1.822	1.991	2.226	2.387

O=P([O-])(O)O.[NH4+] + O
viscosity [mPa·s], 101 kPa
Conditions	293.15 K	303.15 K	313.15 K	323.15 K
x1 = 0.017	1.312	1.049	0.855	0.71
x1 = 0.038	1.826	1.442	1.17	0.972
x1 = 0.063	–	2.196	1.749	1.438
x1 = 0.095	–	–	–	2.325

CCS + CCO
298.15 K, 101 kPa
Conditions	viscosity [mPa·s]
x1 = 0.026	1.048
x1 = 0.072	0.9731
x1 = 0.0942	0.9305
x1 = 0.1067	0.8559
x1 = 0.1258	0.8385
x1 = 0.2634	0.6525
x1 = 0.2941	0.6119
x1 = 0.3753	0.5821
x1 = 0.6123	0.4083

C=C(C)[C@@H]1CC=C(C)CC1 + COC(C)(C)C
298.15 K, 101.33 kPa
Conditions	viscosity [mPa·s]
x2 = 0.0694	0.807
x2 = 0.1591	0.755
x2 = 0.257	0.7
x2 = 0.3599	0.641
x2 = 0.491	0.572
x2 = 0.6599	0.486
x2 = 0.7344	0.449
x2 = 0.8017	0.418
x2 = 0.8714	0.386
x2 = 0.9373	0.356
x2 = 0.9672	0.344

CC(C)CC(C)(C)C + CCCCCCCCCCCC
viscosity [mPa·s]
Conditions	298.15 K	323.14 K
100 kPa, x1 = 0.5	0.8601	0.6179
101 kPa, x1 = 0.0923	1.236	–
101 kPa, x1 = 0.1569	1.169	–
101 kPa, x1 = 0.2503	1.085	–
101 kPa, x1 = 0.3747	0.9632	–
101 kPa, x1 = 0.4786	0.8653	–
101 kPa, x1 = 0.5889	0.7696	–
101 kPa, x1 = 0.6762	0.7013	–
101 kPa, x1 = 0.7597	0.6346	–
101 kPa, x1 = 0.8459	0.5724	–
101 kPa, x1 = 0.9062	0.5377	–
101 kPa, x1 = 0.9457	0.5099	–
101 kPa, x1 = 0.9733	0.4948	–
